Legend:
[1] = system: PI3-K in BT20 cells (phosphorylation of AKT at serine 473); assay: PI3-Kα Cellular Assay (AKT Ser473 phosphorylation ELISA in BT20 cells); type: cell-based, human; details: 1 hour incubation
Method in brief: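 Cells seeded overnight in 0.5% FBS, then exposed 1 h at 37 °C to an 11-concentration 1:3 dilution series, in duplicate.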

[2] = biological target: PI3-Kα (Mus musculus (Mouse), UniProt P42337); assay: PI3-Kα Biochemical Assay (fluorescence polarization kinase assay)
Method in brief: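 Co-expressed mouse p110/p85 PI3-Kα (4 nM stock) acting on PI(4,5)P2 (60 μM stock) with ATP/MgCl2 in HEPES pH 7.4 buffer, 35 min at room temperature, then EDTA stop. PI(3,4,5)P3 product detected by displacement of TAMRA-PIP3 from Grip1 PH domain (FP, 535/580 nm). IC50 from sigmoidal fit of % inhibition.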

[3] = Homo sapiens, BT-20, pAKT Ser473 ELISA

Chain of PI3-Kα (P42337 whole entry, the tested form may be a part): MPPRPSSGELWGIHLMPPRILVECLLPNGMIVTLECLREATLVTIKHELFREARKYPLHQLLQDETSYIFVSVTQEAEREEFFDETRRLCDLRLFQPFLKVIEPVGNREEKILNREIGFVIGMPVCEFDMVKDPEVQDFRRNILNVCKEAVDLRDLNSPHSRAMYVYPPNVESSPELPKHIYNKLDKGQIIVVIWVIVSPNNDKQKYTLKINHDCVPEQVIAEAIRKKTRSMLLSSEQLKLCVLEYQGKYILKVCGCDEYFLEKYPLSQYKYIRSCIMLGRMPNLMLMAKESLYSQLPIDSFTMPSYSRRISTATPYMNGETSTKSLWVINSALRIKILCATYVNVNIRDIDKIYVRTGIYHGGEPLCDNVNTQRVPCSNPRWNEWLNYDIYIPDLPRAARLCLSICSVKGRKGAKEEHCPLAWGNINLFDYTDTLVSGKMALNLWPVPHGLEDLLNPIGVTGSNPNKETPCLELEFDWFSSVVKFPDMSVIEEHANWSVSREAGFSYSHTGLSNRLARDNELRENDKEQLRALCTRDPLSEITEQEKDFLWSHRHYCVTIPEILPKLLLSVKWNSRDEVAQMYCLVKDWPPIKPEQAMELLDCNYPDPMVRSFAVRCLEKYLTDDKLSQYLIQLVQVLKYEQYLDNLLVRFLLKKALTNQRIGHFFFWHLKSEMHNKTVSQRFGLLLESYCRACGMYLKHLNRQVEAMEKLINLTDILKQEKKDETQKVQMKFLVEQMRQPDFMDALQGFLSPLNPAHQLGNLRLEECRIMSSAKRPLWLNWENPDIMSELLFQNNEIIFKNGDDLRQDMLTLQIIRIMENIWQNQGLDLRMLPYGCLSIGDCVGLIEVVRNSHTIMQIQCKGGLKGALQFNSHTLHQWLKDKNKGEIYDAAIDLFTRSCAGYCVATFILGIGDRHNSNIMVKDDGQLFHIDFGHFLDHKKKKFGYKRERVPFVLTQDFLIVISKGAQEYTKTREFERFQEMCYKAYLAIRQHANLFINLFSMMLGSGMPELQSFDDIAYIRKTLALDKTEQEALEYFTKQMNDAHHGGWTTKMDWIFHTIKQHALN
Chain of PI3-Kα (P26450 whole entry partner, the tested form may be a part): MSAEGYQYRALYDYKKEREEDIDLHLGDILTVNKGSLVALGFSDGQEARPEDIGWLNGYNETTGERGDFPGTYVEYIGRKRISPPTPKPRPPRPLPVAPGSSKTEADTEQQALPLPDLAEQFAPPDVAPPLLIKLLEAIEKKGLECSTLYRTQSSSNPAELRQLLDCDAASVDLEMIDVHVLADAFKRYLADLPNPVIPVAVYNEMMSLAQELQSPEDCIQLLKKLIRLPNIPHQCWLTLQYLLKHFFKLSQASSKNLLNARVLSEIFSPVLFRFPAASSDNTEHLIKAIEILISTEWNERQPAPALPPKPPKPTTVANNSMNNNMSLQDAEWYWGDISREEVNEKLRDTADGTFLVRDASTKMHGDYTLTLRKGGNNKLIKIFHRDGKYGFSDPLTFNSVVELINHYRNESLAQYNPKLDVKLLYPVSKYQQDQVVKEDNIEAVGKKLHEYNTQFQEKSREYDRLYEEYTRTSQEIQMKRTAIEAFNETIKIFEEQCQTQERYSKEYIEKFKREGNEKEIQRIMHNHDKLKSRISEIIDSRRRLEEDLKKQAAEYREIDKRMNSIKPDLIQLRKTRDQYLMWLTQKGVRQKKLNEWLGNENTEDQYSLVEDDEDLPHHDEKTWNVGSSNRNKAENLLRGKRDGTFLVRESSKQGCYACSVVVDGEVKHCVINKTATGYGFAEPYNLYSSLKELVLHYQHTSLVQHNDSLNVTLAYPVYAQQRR

Compound | IC50 ([1]; pAKT Ser473 ELISA) [nM] | IC50 [2] [nM] | IC50 [1, 3] [nM]
Cc1nc(N)nc2c1cc(-c1cccc(CO)c1)c(=O)n2C1CCCC1 [Compound 256] | 20.2 | 3.1 | –
COc1ccc(Cn2c(=O)c(-c3ccccc3)cc3c(C)nc(N)nc32)cc1 [Compound 149, 8-(4-Methoxybenzyl)-2-amino-4-methyl-6-phenylpyrido[2,3-d]pyrimidin-7(8H)-one] | – | 310 | > 10000
Cc1nc(N)nc2c1cc(Br)c(=O)n2[C@H]1CC[C@@H](O)CC1 [Compound 168, 2-amino-6-bromo-8-(cis-4-hydroxycyclohexyl)-4-methylpyrido[2,3-d]pyrimidin-7(8H)-one] | – | 130 | 228
CNc1nc(C)c2cc(-c3cccc(O)c3)c(=O)n(C3CCCC3)c2n1 [Compound 146, 8-cyclopentyl-6-(3-hydroxyphenyl)-4-methyl-2-(methylamino)pyrido[2,3-d]pyrimidin-7(8H)-one] | – | 0.731 | 1.76
CNc1nc(C)c2cc(-c3cnn(C)c3)c(=O)n(C3CCCC3)c2n1 [Compound 234, 8-Cyclopentyl-4-methyl-2-methylamino-6-(1-melhyl-1H-pyrazol-4-yl)-8H-pyrido[2,3-d]pyrimidin-7-one] | – | 39 | 314
CCNc1nc(C)c2cc(CCC(=O)Nc3ncc[nH]3)c(=O)n(C3CCCC3)c2n1 [Compound 119] | – | 310 | 5710
CCNc1nc(C)c2cc(CCC(=O)OCC)c(=O)n(C3CCCC3)c2n1 [Compound 132, Ethyl 3-(8-cyclopentyl-2-(ethylamino)-4-methyl-7-oxo-7,8-dihydropyrido[2,3-d]pyrimidin-6-yl)propanoate] | – | 5500 | 10000
Cc1nc(N)nc2c1cc(-c1ccc(N(C)C)nc1)c(=O)n2[C@H]1CC[C@H](OCCO)CC1 [Compound 292] | – | 9.28 | 12.1
Cc1nc(N)nc2c1cc(-c1cnn(C(=O)OC(C)(C)C)c1)c(=O)n2N1CCCC1 [Compound 192, Tert-butyl-4-(2-amino-4-methyl-7-oxo-8-(pyrrolidin-1-yl)-7,8-dihydropyrido[2,3-d]pyrimidin-6-yl)-1H-pyrazole-1-carboxylate] | – | 93 | 5.08

The remaining lines, values ahead:

IC50 ([1]; pAKT Ser473 ELISA) [nM] | IC50 [2] [nM] | IC50 [1, 3] [nM] | Compound
– | 15 | 17.9 | Cc1nc(N)nc2c1cc(-c1cnc(N)cn1)c(=O)n2C1CCCC1 [Compound 229, 2-amino-6-(5-aminopyrazin-2-yl)-8-cyclopentyl-4-methylpyrido[2,3-d]pyrimidin-7(8H)-one]
– | 200 | 671 | COc1ccc(-c2cc3c(C)nc(N)nc3n(C3CCNC3)c2=O)cn1 (stereo not drawn) [Compound 247, 2-Amino-6-(6-methoxy-pyridin-3-yl)-4-methyl-8-pyrrolidin-3-yl-8H-pyrido[2,3-d]pyrimidin-7-one]
– | 2 | 11.9 | Cc1nc(N)nc2c1cc(-c1cnc3[nH]ccc3c1)c(=O)n2C1CCC1 [Compound 207, 2-amino-8-cyclobutyl-4-methyl-6-(1H-pyrrolo[2,3-d]pyridin-5-yl)pyrido[2,3-d]pyrimidin-7(8H)-one]
– | 45 | 26.7 | COc1ncc(-c2cc3c(C)nc(N)nc3n(C3CCOCC3)c2=O)cn1 [Compound 259, 2-amino-6-(2-methoxypyrimidin-5-yl)-4-methyl-8-(tetrahydro-2H-pyran-4-yl)pyrido[23-d]pyrimidin-7(8H)-one]
– | 18 | 316 | COc1ccc(-c2cc3c(C)nc(N)nc3n(CC3(F)CCOCC3)c2=O)cn1 [Compound 243, 2-Amino-8-(4-fluoro-tetrahydro-pyran-4-ylmethyl)-6-(6-methoxy-pyridin-3-yl)-4-methyl-8H-pyrido[2,3-d]pyrimidin 7-one]
– | 8.9 | 41.4 | CNc1nc(C)c2cc(-c3ccc(OC)nc3)c(=O)n(CCC3CC3)c2n1 [Compound 232, 8-(2-Cyclopropyl-ethyl)-6-(6-methoxy-pyridin-3-yl)-4-methyl-2-methylamino-8H-pyrido[2,3-d]pyrimidin-7-one]
– | 21 | 95.2 | CNc1nc(C)c2cc(-c3ccc(OC)nc3)c(=O)n(C(C)C)c2n1 [Compound 113, 8-Isopropyl-6-(6-methoxypyridin-3-yl)-4-methyl-2-(methylamino)pyrido[2,3-c]pyrimidin-7(8H)-one]
– | 5.91 | 110 | COc1ncc(-c2cc3c(C)nc(N)nc3n([C@H]3C[C@H](OCC(N)=O)C3)c2=O)cn1 [Compound 319, 2-({trans-3-(2-amino-6-(2-methoxypyrimidin-5-yl)-4-methyl-7-oxopyrido[2,3-d]pyrimidin-8(7H)-yl]cydobutyl}oxy)acetamide]
– | 130 | 262 | COc1ccc(-c2cc3c(C)nc(N)nc3n(CC(F)(F)F)c2=O)cn1 [Compound 198, 2-amino-6-(6-methoxypyridin-3-yl)-4-methyl-8-(2,2,2-trifluoroethyl)pyrido[2,3-d]pyrimidin-7(8H)-one]
– | 300 | 2520 | Cc1nc(N)nc2c1cc(-c1cnc(O)nc1)c(=O)n2C(C)C [Compound 268, 2-amino-6-(2-hydroxypyrimidin-5-yl)-8-isopropyl-4-methylpyrido[2,3-d]pyrimidin-7(8H)-one]
– | 4.72 | 33.5 | COc1ccc(-c2cc3c(C)nc(N)nc3n([C@H]3C[C@H](OCC(N)=O)C3)c2=O)cn1 [Compound 317, 2-({trans-3-[2-amino-6-(6-methoxypyridin-3-yl)-4-methyl-7-oxopyrido[2,3-d]pyrimidin-8(7H)-yl]cyclobutyl}oxy)acetamide]
– | 188 | 236 | Cc1nc(N)nc2c1cc(-c1cn[nH]c1)c(=O)n2CC(F)(F)F [Compound 197, 2-amino-4-methyl-6-(1H-pyrazol-4-yl)-8-(2,2,2-trifluoroethyl)pyrido[2,3-d]pyrididin-7(8H)-one]
